{"source": "ChEMBL document CHEMBL5241112", "about": "“Insights into the recent progress in the medicinal chemistry of pyranopyrimidine analogs” (RSC Med Chem, 2022)", "key": {"[1]": {"system": "Clostridium tetani", "assay": "Antibacterial activity against Clostridium tetani MTCC 449 assessed as bacterial growth inhibition by broth microdilution method", "type": "functional"}, "[2]": {"system": "Candida albicans", "assay": "Antifungal activity against Candida albicans MTCC 3008 assessed as fungal growth inhibition by broth microdilution method", "type": "functional"}, "[3]": {"system": "Aspergillus fumigatus", "assay": "Antifungal activity against Aspergillus fumigatus MTCC 227 assessed as fungal growth inhibition by broth microdilution method", "type": "functional"}, "[4]": {"system": "Mycobacterium tuberculosis", "assay": "Antitubercular activity against Mycobacterium tuberculosis H37Rv assessed as bacterial growth inhibition at 250 ug/ml", "type": "functional"}, "[5]": {"system": "Mycobacterium tuberculosis", "assay": "Antitubercular activity against Mycobacterium tuberculosis H37Rv assessed as bacterial growth inhibition at 100 ug/ml", "type": "functional"}, "[6]": {"system": "Plasmodium falciparum", "assay": "microbe, parasite or virus in culture"}, "[7]": {"system": "Micrococcus luteus", "assay": "Antibacterial activity against Micrococcus luteus MTCC 2470 assessed as bacterial growth inhibition", "type": "functional"}, "[8]": {"system": "Bacillus subtilis", "assay": "Antibacterial activity against Bacillus subtilis MTCC 121 assessed as bacterial growth inhibition", "type": "functional"}, "[9]": {"system": "Staphylococcus aureus", "assay": "Antibacterial activity against Staphylococcus aureus MLS-16 MTCC 2940 assessed as bacterial growth inhibition", "type": "functional"}, "[10]": {"system": "Escherichia coli", "assay": "Antibacterial activity against Escherichia coli MTCC 739 assessed as bacterial growth inhibition", "type": "functional"}, "[11]": {"system": "Raoultella planticola", "assay": "Antibacterial activity against Raoultella planticola MTCC 530 assessed as bacterial growth inhibition", "type": "functional", "conditions": "Klebsiella planticola"}, "[12]": {"system": "Pseudomonas aeruginosa", "assay": "Antibacterial activity against Pseudomonas aeruginosa MTCC 2453 assessed as bacterial growth inhibition", "type": "functional"}, "[13]": {"system": "Escherichia coli", "assay": "Antimicrobial activity against Escherichia coli assessed as diameter of inhibition zone by agar well diffusion method", "type": "functional"}, "[14]": {"system": "Bacillus subtilis", "assay": "Antimicrobial activity against Bacillus subtilis assessed as diameter of inhibition zone by agar well diffusion method", "type": "functional"}, "[15]": {"assay": "Antioxidant activity assessed as DPPH radical scavenging activity at 50 ug/ml incubated for 30 mins by spectrophotometric analysis", "type": "functional", "conditions": "dose 50.0 µg/ml"}, "[16]": {"assay": "Antioxidant activity assessed as DPPH radical scavenging activity at 75 ug/ml incubated for 30 mins by spectrophotometric analysis", "type": "functional", "conditions": "dose 75.0 µg/ml"}, "[17]": {"assay": "Antioxidant activity assessed as DPPH radical scavenging activity at 100 ug/ml incubated for 30 mins by spectrophotometric analysis", "type": "functional", "conditions": "dose 100.0 µg/ml"}, "[18]": {"system": "A549", "assay": "Anticancer activity against human A549 cells assessed as reduction in cell viability incubated for 24 hrs by MTT assay", "type": "functional, cell-based", "conditions": "A549, 24 h"}, "[19]": {"system": "HepG2", "assay": "Anticancer activity against human HepG2 cells assessed as reduction in cell viability", "type": "functional, cell-based"}, "[20]": {"target": "DNA topoisomerase II (Homo sapiens, UniProt P11388+Q02880)", "assay": "Inhibition of DNA topoisomerase 2 (unknown origin)", "type": "protein assay"}, "[21]": {"system": "PC-3", "assay": "Anticancer activity against human PC-3 cells assessed as reduction in cell viability", "type": "functional, cell-based"}, "[22]": {"system": "HCT-116", "assay": "Anticancer activity against human HCT-116 cells assessed as reduction in cell viability incubated for 24 hrs by MTT colorimetric assay", "type": "functional, cell-based", "conditions": "HCT-116, 24 h"}, "[23]": {"system": "HepG2", "assay": "Anticancer activity against human HepG2 cells assessed as reduction in cell viability incubated for 24 hrs by MTT colorimetric assay", "type": "functional, cell-based", "conditions": "HepG2, 24 h"}, "[24]": {"system": "MCF7", "assay": "Anticancer activity against human MCF7 cells assessed as reduction in cell viability incubated for 24 hrs by MTT colorimetric assay", "type": "functional, cell-based", "conditions": "MCF7, 24 h"}, "[25]": {"system": "HCT-116", "assay": "cells", "conditions": "Homo sapiens"}, "[26]": {"system": "Human immunodeficiency virus 1", "assay": "Antiviral activity against HIV1 IIIB infected in human MT4 cells assessed as reduction in virus-induced cytopathic effect by MTT assay", "type": "functional, organism-based", "conditions": "Human immunodeficiency virus 1, IIIB"}, "[27]": {"system": "Human immunodeficiency virus 2", "assay": "Antiviral activity against HIV2 ROD infected in human MT4 cells assessed as reduction in virus-induced cytopathic effect by MTT assay", "type": "functional, organism-based", "conditions": "Human immunodeficiency virus 2, ROD"}, "[28]": {"assay": "Antioxidant activity assessed as DPPH radical scavenging activity at 25 ug/ml incubated for 30 mins by spectrophotometric analysis", "type": "functional", "conditions": "dose 25.0 µg/ml"}, "[29]": {"system": "Salmonella typhimurium", "assay": "Antibacterial activity against Salmonella typhimurium MTCC 98 assessed as bacterial growth inhibition by broth microdilution method", "type": "functional, Salmonella enterica subsp. enterica serovar Typhimurium", "conditions": "Salmonella enterica"}, "[30]": {"target": "Hydroxycarboxylic acid receptor 2 (Homo sapiens, UniProt Q8TDS4)", "sequence (Q8TDS4 whole entry)": "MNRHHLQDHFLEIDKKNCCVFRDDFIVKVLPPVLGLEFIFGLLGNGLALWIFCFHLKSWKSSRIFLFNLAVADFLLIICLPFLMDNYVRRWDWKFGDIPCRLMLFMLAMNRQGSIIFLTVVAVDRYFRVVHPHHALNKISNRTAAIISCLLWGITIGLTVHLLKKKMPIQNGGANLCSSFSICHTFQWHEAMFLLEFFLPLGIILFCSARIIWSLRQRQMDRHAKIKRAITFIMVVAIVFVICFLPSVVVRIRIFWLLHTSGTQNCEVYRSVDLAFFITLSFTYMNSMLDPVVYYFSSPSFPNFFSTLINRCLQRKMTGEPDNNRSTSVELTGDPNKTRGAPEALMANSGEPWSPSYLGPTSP", "assay": "Agonist activity at human HCA2 expressed in human Flp-In-293 cells assessed as inhibition of forskolin-stimulated cAMP accumulation at 50 uM incubated for 30 mins by Lance cAMP assay", "type": "cell-based", "conditions": "filed as agonist"}, "[31]": {"system": "MCF7", "assay": "Anticancer activity against human MCF7 cells assessed as reduction in cell viability", "type": "functional, cell-based"}, "[32]": {"target": "DNA", "assay": "Binding affinity to DNA (unknown origin) assessed as DNA intercalation", "type": "nucleic-acid assay"}}}
{"compound": "Cc1nn(-c2ccccc2)c(-n2ccnc2)c1C1C(C#N)=C(N)Oc2[nH]c(=S)[nH]c(=O)c21", "note": "(configuration not stated)", "values": [{"measurement": "MIC", "setting": "[1]", "value": 100, "unit": "µg/mL"}, {"measurement": "MIC", "setting": "[2]", "value": 500, "unit": "µg/mL"}, {"measurement": "MIC", "setting": "[3]", "value": 200, "unit": "µg/mL"}, {"measurement": "inhibition at 250 µg/mL", "setting": "[4]", "value": 37, "unit": "%"}, {"measurement": "inhibition at 100 µg/mL", "setting": "[5]", "value": 30, "unit": "%"}, {"measurement": "IC50", "setting": "[6]", "value": 0.97, "unit": "µg/mL"}]}
{"compound": "O=c1oc2ccccc2c2c1C(c1ccccc1)c1c(Nc3ccc([N+](=O)[O-])cc3)ncnc1O2", "note": "(configuration not stated)", "values": [{"measurement": "MIC", "setting": "[7]", "value": 31.2, "unit": "µg/mL"}, {"measurement": "MIC", "setting": "[8]", "value": "≤ 125", "unit": "µg/mL"}, {"measurement": "MIC", "setting": "[9]", "value": "≤ 125", "unit": "µg/mL"}, {"measurement": "MIC", "setting": "[10]", "value": 31.2, "unit": "µg/mL"}, {"measurement": "MIC", "setting": "[11]", "value": 31.2, "unit": "µg/mL"}, {"measurement": "MIC", "setting": "[12]", "value": "≤ 125", "unit": "µg/mL"}]}
{"compound": "COC1=CC(=O)C[C@@H](C)[C@]12Oc1c(Cl)c(OC)cc(OC)c1C2=O", "note": "[GRISEOFULVIN]", "values": [{"measurement": "MIC", "setting": "[2]", "value": 500, "unit": "µg/mL"}]}
{"compound": "C[C@H]1COc2c(N3CCN(C)CC3)c(F)cc3c(=O)c(C(=O)O)cn1c23.C[C@H]1COc2c(N3CCN(C)CC3)c(F)cc3c(=O)c(C(=O)O)cn1c23.O", "note": "[LEVOFLOXACIN]", "values": [{"measurement": "diameter of the inhibition zone (DIZ)", "setting": "[13]", "value": 29.35, "unit": "mm"}, {"measurement": "diameter of the inhibition zone (DIZ)", "setting": "[14]", "value": 26, "unit": "mm"}]}
{"compound": "O=c1c(C2c3c(-c4ccccc4)n[nH]c3Oc3[nH]c(=S)[nH]c(=S)c32)coc2ccccc12", "note": "(configuration not stated)", "values": [{"measurement": "Activity", "setting": "[15]", "value": 66.5, "unit": "%"}, {"measurement": "Activity", "setting": "[16]", "value": 84.3, "unit": "%"}, {"measurement": "Activity", "setting": "[17]", "value": 86.4, "unit": "%"}]}
{"compound": "COc1cccc2c1C(=O)c1c(O)c3c(c(O)c1C2=O)C[C@@](O)(C(=O)CO)C[C@@H]3O[C@H]1C[C@H](N)[C@H](O)[C@H](C)O1", "note": "[DOXORUBICIN]", "values": [{"measurement": "IC50", "setting": "[18]", "value": 0.14, "unit": "µM"}, {"measurement": "IC50", "setting": "[19]", "value": 7.94, "unit": "µM"}, {"measurement": "IC50", "setting": "[20]", "value": 0.94, "unit": "µM"}, {"measurement": "IC50", "setting": "[21]", "value": 0.467, "unit": "µg/mL"}, {"measurement": "IC50", "setting": "[22]", "value": 0.467, "unit": "µM"}, {"measurement": "IC50", "setting": "[23]", "value": 0.467, "unit": "µM"}, {"measurement": "IC50", "setting": "[24]", "value": 0.467, "unit": "µM"}, {"measurement": "IC50", "setting": "[25]", "value": 2.61, "unit": "µM"}]}
{"compound": "Cc1cn([C@H]2C[C@H](N=[N+]=[N-])[C@@H](CO)O2)c(=O)[nH]c1=O", "note": "[ZIDOVUDINE]", "values": [{"measurement": "EC50", "setting": "[26]", "value": 0.0022, "unit": "µg/mL"}, {"measurement": "EC50", "setting": "[27]", "value": 0.00094, "unit": "µg/mL"}]}
{"compound": "NC(=O)C1=C(N)Oc2[nH]nc(-c3ccccc3)c2C1c1coc2ccccc2c1=O", "note": "(configuration not stated)", "values": [{"measurement": "Activity", "setting": "[28]", "value": 62.5, "unit": "%"}]}
{"compound": "Cc1nn(-c2ccccc2)c(-n2ccnc2)c1C1C(C#N)=C(N)Oc2c1c(=O)n(C)c(=O)n2C", "note": "(configuration not stated)", "values": [{"measurement": "MIC", "setting": "[1]", "value": 100, "unit": "µg/mL"}, {"measurement": "MIC", "setting": "[29]", "value": 100, "unit": "µg/mL"}, {"measurement": "MIC", "setting": "[2]", "value": 500, "unit": "µg/mL"}, {"measurement": "MIC", "setting": "[3]", "value": 200, "unit": "µg/mL"}, {"measurement": "inhibition at 250 µg/mL", "setting": "[4]", "value": 37, "unit": "%"}, {"measurement": "inhibition at 100 µg/mL", "setting": "[5]", "value": 30, "unit": "%"}, {"measurement": "IC50", "setting": "[6]", "value": 0.082, "unit": "µg/mL"}]}
{"compound": "O=C(CSc1nc(=O)c2c(CCCCCl)cc(=O)oc2[nH]1)Oc1ccccc1", "values": [{"measurement": "Emax", "setting": "[30]", "value": 85, "unit": "%"}]}
{"compound": "COc1ccc(C2c3c([nH]c(=O)[nH]c3=O)Oc3ncn(-c4ccccc4O)c(=N)c32)cc1", "note": "(configuration not stated)", "values": [{"measurement": "IC50", "setting": "[19]", "value": 2.09, "unit": "µM"}, {"measurement": "IC50", "setting": "[31]", "value": 2.43, "unit": "µM"}, {"measurement": "IC50", "setting": "[20]", "value": 0.776, "unit": "µM"}, {"measurement": "IC50", "setting": "[32]", "value": 29.9, "unit": "µM"}, {"measurement": "IC50", "setting": "[25]", "value": 2.61, "unit": "µM"}]}
